The values that follow come from patent US11744868B1, “Inonotus obliquus dextran, preparation method and application thereof” (Jilin Agricultural University, priority 2022, dated 2023).

For test [1], the system named is AsPC-1 (human metastatic pancreatic adenocarcinoma cells) cells. The experiment in a line: CCK-8 cell viability of AsPC-1 cells. The settings on record: for Cell vitality (%): 24 h, n = 3. The class given is cell-based. On the procedure:
Therapeutic effects of two drugs, Inonotus Obliquus polysaccharide and gemcitabine hydrochloride, alone and in combination, on AsPC-1 (human metastatic pancreatic adenocarcinoma cells) cells are investigated respectively. Cell culture: AsPC-1 (human metastatic pancreatic adenocarcinoma cells) cells are resuscitated in culture flasks and incubated at 37° C. in a 5% CO2 incubator; the cells are adhered to the wall and then subjected to passaging or […] operations; inoculation: when the cells are in logarithmic growth phase, they are washed twice with PBS buffer (phosphate concentration 0.01 M, pH 7.2-7.4); the cells are digested by 1 mL of 0.25% trypsin-EDTA (ethylene diamine tetraacetic acid) for 1-2 min, then 2 mL of RPMI-1640 culture solution containing 10% fetal bovine serum and 1% of double antibodies (penicillin and streptomycin) is added to terminate the digestion, followed by centrifuging at 1,000 revolutions per minute (rpm) for 3 min; then the wall-adhered cells are completely blown down and enumerated by hemocytometer plates, where the cells are inoculated in an 96-well plate in an amount of 100 μL per well, with a controlled number of 5,000 cells per well, and incubated in an incubator for 24 h. CCK-8 experiment dosing: […] Calculation of cell viability for each group:Cell viability (%)=(ODsample−ODblank)×100/(ODcontrol−ODblank)

In a further test the test system is AsPC-1 cell. The settings on record: 0, 200 μg/mL, 400 μg/mL, 800 ng/mL; 24 h incubation; FIG. 9.

Counter-ions that a name gives are not always drawn.

`Nc1ccn([C@@H]2O[C@H](CO)[C@@H](O)C2(F)F)c(=O)n1` [gemcitabine hydrochloride, reference compound]: the “Cell vitality (%)” value in test [1] (0 μg/mL IOP1-1 + 20 μg/mL gemcitabine hydrochloride) turned out to be 66.1 ± 5.49%.
Consider Inonotus Obliquus dextran [IOP1-1], for which the mitochondrial membrane potential entry in the test with AsPC-1 cell was “decreases as the concentration of drug administered increases”. Besides, the results for the “Cell vitality (%)” value in test [1] (400 μg/mL IOP1-1 + 0 μg/mL gemcitabine hydrochloride) and in test [1] (800 μg/mL IOP1-1 + 0 μg/mL gemcitabine hydrochloride) were 78.2 ± 2.24% and 66.5 ± 4.12%, respectively. Also, the “therapeutic effect on AsPC-1 tumor cells / tumor inhibition” value in test [1] (summary in words of Table 2) is listed as “excellent”.
